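These data come from cells grown in 96-well plates and exposed to compound for 48 hours at five concentrations. TGI denotes the concentration required for complete inhibition of growth.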

Data on 14 molecules can be found in PubChem BioAssay (NCI).

What all share (assay): DTP human tumour cell line panel, 48 h
Assay [1] relates to NCI-H23 lung.
The subject of assay [2] is UACC-62 melanoma.
Assay [3] deals with CCRF-CEM leukemia.
Assay [4] concerns OVCAR-8 ovarian.
Assay [5] relates to SK-MEL-2 melanoma.
Assay [6] relates to SNB-78 CNS.
The test system of assay [7] is SF-268 CNS.
The subject of assay [8] is U251 CNS.
For assay [9], the system named is NCI-H226 lung.
For assay [10], the system named is SR leukemia.

As for `N#C/C(=C1\SC(N=Nc2ccc(Cl)cc2)C(=O)N1c1ccccc1)c1nc2ccccc2[nH]1` (stereo not drawn), the TGI in assay [1] was 65.8 µM; in assay [2] it was greater than 100 µM; in assay [3], 47.4 µM; in assay [4], greater than 100 µM; in [5], 62 µM; in [6], greater than 100 µM. The figures for the total growth inhibition concentration (TGI) in assay [7], in assay [8] and in assay [9] were greater than 100 µM, 44.8 µM and 77.2 µM, respectively.
Consider `Cc1cccc(C)c1N1C(=O)C(=O)C(c2nc3ccccc3s2)C(=Nc2cccc3c(=O)[nH][nH]c(=O)c23)C1=O` (stereo not drawn), for which the concentration for total growth inhibition (TGI) in assay [1], in [2], in assay [3], in assay [4], in assay [10] and in assay [5] was greater than 100 µM each time. The TGI in [6], in assay [7], in [8] and in assay [9] was greater than 100 µM throughout.
Take `CN(C)C(=S)Nc1nnc(Nc2ccccc2)s1`: the total growth inhibition concentration (TGI) in assay [1], in [3], in [4], in assay [10], in assay [5] and in assay [6] was greater than 100 µM in each case. Besides, the total growth inhibition concentration (TGI) in assay [8] and in assay [9] was greater than 100 µM each time.
Consider `Nc1ccccc1C(=O)C(Br)C(Br)c1ccc2c(c1)OCO2` (stereo not drawn), for which the TGI in [1] is 47.4 µM; in assay [2], 35.2 µM; in [3], greater than 100 µM; in assay [4] it was 91.5 µM; in [10], greater than 100 µM; in assay [5], 35.2 µM. In addition, the concentration for total growth inhibition (TGI) amounted to 81 µM in assay [6], 91.5 µM in assay [7], 49.6 µM in assay [8] and 52.2 µM in assay [9].
For the molecule `COc1ccccc1NC(=O)/C(=C/c1ccccc1)C(C)=O`, the TGI in [1] is 65.7 µM; in assay [2] it was greater than 100 µM; in assay [3], greater than 100 µM; in [4], greater than 100 µM; in assay [10], greater than 100 µM; in assay [5], greater than 100 µM. Moreover, the TGI in [6] is 44.6 µM; in assay [7] it was greater than 100 µM; in assay [8], 15 µM; in assay [9], greater than 100 µM.
Turning to `COc1cc(C2c3cc4c(cc3[C@@H](Nc3ccc5c(c3)OCCO5)C3COC(=O)[C@H]23)OCO4)cc(OC)c1O` (stereo partly drawn), the total growth inhibition concentration (TGI) in assay [1] was 2.79 µM; in assay [2], 7.19 µM; in assay [3] it was 2.28 µM; in [4], 25.6 µM; in [5], 12 µM; in assay [6], greater than 34.2 µM. Further, the concentration for total growth inhibition (TGI) in assay [7] stood at 23.1 µM; in assay [8] it was 8.26 µM; in assay [9], 1.94 µM.
Consider `O=C1CNS(=O)(=O)N1`, for which the total growth inhibition concentration (TGI) in assay [1], in [2], in assay [3], in assay [4], in assay [10] and in assay [5] was greater than 100 µM each time. Also, the concentration for total growth inhibition (TGI) in assay [6], in [7] and in assay [9] was greater than 100 µM in each case.
For `CC1(C)CC(=O)C(CC2C(=O)c3ccccc3C2=O)C(=O)C1`, the TGI in [1], in assay [2], in assay [3], in assay [4], in [10] and in assay [5] was greater than 100 µM in each case. Besides, the total growth inhibition concentration (TGI) in [6], in assay [7], in assay [8] and in assay [9] was greater than 100 µM throughout.
On to `Cn1c(=O)nc2n(-c3ccc(Cl)c(C(F)(F)F)c3)c3ccccc3nc-2c1=O`, for which the TGI was greater than 83.2 µM in assay [1]; 35.4 µM in assay [2]; greater than 100 µM in assay [3]; 83.1 µM in assay [4]; greater than 100 µM in assay [5]; greater than 100 µM in [6]. Moreover, the TGI in [7], in assay [8] and in assay [9] was greater than 100 µM in each case.
On to `O=S1CSSC1`, for which the TGI was 76.7 µM in assay [1]; 25.8 µM in assay [2]; 46.2 µM in assay [3]; 52 µM in assay [4]; 47.2 µM in assay [10]; 33.9 µM in assay [5]. For the same molecule, the concentration for total growth inhibition (TGI) in assay [6] stood at 62 µM; in assay [7] it was 58.4 µM; in [8] it was 37.5 µM; in assay [9] it was 71.7 µM.
For `Cc1c(C(=O)/C=C/c2ccccc2[N+](=O)[O-])[n+](=O)c2ccccc2n1[O-]`, the total growth inhibition concentration (TGI) in assay [1] turned out to be 17.8 µM; in [4], 14.3 µM; in assay [10], 31.6 µM; in assay [5], 24.1 µM; in [6] it was 70.7 µM; in assay [8], 28.5 µM. This molecule had a TGI in assay [9] of 24 µM.
As for `O=C(CC1(O)C(=O)Nc2c(Cl)ccc(Cl)c21)c1ccc(Cl)cc1Cl` (stereo not drawn), the TGI in assay [1] was 43.3 µM; in assay [2], 34.9 µM; in [4] it was 41.6 µM; in assay [5], 48.9 µM; in [6], greater than 100 µM; in assay [7] it was 62.9 µM. For the same molecule, the TGI in [8] was determined as 21.9 µM; in assay [9] it was 30.5 µM.
For `CC(C)(C)OC(=O)NC1CCCC1=O` (stereo not drawn), the TGI in assay [1], in assay [2], in [3], in [4], in assay [10] and in [5] was greater than 100 µM in each case. Further, the TGI in [6], in assay [7], in assay [8] and in assay [9] was greater than 100 µM throughout.
With `O=C1C2=C(CCC2)Nc2cccc3ncn1c23`, the total growth inhibition concentration (TGI) in assay [1], in [2], in assay [3], in [4], in [10] and in assay [5] was greater than 100 µM each time. Besides, the TGI in [6], in assay [7] and in assay [8] was greater than 100 µM throughout.

In general, TGI refers to the concentration at which net growth stops. A high value points to lower sensitivity of the cells.
